Our source for the inhibition values is ChEMBL document CHEMBL5442219.

Common to all, as to conditions: Compound concentration 10 µM
Experiment [1] has as its target T1, D(4) dopamine receptor (Homo sapiens) (UniProt P21917).
T1 sequence (whole entry): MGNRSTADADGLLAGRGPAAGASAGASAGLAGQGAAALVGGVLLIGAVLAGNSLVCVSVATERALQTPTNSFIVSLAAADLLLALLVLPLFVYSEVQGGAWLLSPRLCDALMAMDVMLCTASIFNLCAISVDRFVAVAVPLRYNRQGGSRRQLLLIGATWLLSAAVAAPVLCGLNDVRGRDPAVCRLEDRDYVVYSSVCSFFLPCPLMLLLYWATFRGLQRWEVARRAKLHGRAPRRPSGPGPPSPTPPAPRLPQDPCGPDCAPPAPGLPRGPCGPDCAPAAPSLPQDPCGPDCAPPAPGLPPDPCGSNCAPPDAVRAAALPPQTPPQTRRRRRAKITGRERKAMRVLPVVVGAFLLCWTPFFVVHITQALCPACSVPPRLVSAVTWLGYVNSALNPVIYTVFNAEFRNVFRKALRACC

For experiment [2], the target named is D(2) dopamine receptor (Homo sapiens) (UniProt P14416).
Sequence of D(2) dopamine receptor (Homo sapiens) (P14416 whole entry): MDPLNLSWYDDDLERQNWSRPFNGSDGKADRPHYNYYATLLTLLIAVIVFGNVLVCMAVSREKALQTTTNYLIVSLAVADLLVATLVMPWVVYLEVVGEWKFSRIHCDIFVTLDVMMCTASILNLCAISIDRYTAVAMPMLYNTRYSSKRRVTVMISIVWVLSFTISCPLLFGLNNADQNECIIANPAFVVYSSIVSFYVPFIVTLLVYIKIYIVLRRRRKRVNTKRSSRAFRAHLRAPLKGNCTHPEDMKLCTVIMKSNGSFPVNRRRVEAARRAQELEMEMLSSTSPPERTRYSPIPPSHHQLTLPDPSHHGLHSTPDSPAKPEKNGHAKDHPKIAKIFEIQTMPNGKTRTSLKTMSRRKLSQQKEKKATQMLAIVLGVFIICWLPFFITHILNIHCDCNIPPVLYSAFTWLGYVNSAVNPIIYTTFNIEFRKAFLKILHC
Experiment [3] addresses T2, 5-hydroxytryptamine receptor 3A (Homo sapiens) (UniProt P46098).
T2 sequence (whole entry): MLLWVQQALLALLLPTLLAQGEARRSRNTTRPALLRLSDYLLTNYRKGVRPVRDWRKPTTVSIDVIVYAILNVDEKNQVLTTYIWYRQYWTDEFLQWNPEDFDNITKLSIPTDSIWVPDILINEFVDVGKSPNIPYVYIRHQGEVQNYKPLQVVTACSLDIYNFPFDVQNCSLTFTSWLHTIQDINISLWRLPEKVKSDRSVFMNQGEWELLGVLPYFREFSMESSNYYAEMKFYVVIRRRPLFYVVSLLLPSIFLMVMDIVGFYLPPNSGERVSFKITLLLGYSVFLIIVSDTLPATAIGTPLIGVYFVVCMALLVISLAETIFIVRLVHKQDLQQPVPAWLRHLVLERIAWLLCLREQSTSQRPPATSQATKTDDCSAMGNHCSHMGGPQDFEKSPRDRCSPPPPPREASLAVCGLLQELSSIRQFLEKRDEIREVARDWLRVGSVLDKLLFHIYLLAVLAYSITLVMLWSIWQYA

In experiment [4] the target is T3, Alpha-2C adrenergic receptor (Homo sapiens) (UniProt P18825).
T3 sequence (whole entry): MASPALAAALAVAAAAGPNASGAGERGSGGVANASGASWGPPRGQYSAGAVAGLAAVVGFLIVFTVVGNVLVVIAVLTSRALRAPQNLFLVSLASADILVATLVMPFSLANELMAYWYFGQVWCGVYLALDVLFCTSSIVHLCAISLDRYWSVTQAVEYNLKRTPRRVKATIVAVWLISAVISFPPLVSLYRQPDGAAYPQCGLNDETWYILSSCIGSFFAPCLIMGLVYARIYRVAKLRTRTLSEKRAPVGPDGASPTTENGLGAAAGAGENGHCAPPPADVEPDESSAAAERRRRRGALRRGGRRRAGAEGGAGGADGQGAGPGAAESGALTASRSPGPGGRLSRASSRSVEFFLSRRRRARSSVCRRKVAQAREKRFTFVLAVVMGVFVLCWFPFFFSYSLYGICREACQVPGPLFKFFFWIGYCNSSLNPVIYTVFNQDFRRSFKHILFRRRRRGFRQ

For experiment [5], the target named is Sodium-dependent noradrenaline transporter (Homo sapiens) (UniProt P23975).
Sequence of Sodium-dependent noradrenaline transporter (Homo sapiens) (P23975 whole entry): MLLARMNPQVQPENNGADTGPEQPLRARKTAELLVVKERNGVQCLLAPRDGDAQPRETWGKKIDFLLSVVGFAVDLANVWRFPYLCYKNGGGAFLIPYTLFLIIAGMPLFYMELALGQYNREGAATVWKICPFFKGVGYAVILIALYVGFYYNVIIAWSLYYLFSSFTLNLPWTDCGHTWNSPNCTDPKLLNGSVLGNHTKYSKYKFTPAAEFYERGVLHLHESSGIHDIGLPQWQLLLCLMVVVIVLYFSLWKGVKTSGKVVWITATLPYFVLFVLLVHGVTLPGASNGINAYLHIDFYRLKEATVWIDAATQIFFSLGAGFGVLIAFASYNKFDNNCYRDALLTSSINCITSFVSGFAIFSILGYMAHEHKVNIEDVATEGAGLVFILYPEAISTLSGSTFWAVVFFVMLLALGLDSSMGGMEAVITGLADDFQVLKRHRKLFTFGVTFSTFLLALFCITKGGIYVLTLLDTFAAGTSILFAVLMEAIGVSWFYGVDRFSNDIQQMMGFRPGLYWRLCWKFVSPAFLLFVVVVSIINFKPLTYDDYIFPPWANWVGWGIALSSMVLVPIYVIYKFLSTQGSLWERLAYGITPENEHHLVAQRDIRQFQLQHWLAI
Experiment [6] concerns the target Translocator protein (Homo sapiens) (UniProt P30536).
Experiment [7] concerns the target T4, Alpha-1B adrenergic receptor (Homo sapiens) (UniProt P35368).
T4 sequence (whole entry): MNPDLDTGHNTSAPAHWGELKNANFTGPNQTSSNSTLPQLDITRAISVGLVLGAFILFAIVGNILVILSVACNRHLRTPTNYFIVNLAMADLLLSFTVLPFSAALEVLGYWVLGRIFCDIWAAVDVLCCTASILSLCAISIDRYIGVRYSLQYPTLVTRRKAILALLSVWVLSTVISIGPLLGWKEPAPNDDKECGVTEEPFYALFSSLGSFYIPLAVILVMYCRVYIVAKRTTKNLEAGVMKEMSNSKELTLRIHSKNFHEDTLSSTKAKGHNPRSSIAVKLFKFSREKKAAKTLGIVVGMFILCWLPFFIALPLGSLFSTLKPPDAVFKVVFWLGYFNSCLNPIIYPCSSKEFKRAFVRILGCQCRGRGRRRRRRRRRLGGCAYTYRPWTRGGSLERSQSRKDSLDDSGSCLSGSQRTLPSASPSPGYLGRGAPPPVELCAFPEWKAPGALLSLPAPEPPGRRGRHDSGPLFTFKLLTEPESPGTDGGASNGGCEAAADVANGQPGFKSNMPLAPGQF

Experiment [8] deals with D(1A) dopamine receptor (Homo sapiens) (UniProt P21728).
Sequence of D(1A) dopamine receptor (Homo sapiens) (P21728 whole entry): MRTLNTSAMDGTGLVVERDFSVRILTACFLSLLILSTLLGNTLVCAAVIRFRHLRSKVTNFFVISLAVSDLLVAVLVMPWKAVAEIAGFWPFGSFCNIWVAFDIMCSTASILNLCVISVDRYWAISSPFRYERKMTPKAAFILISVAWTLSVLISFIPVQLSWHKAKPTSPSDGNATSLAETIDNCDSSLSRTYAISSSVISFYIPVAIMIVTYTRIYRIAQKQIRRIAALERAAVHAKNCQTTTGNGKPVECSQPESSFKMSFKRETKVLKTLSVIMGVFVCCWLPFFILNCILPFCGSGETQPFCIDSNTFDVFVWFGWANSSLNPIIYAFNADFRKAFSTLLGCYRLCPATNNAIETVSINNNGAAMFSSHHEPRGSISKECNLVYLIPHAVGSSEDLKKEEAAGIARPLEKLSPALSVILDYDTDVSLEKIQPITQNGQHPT
Experiment [9] concerns the target Sigma intracellular receptor 2 (Homo sapiens) (UniProt Q5BJF2).
In experiment [10] the target is T5, Alpha-2B adrenergic receptor (Homo sapiens) (UniProt P18089).
T5 sequence (whole entry): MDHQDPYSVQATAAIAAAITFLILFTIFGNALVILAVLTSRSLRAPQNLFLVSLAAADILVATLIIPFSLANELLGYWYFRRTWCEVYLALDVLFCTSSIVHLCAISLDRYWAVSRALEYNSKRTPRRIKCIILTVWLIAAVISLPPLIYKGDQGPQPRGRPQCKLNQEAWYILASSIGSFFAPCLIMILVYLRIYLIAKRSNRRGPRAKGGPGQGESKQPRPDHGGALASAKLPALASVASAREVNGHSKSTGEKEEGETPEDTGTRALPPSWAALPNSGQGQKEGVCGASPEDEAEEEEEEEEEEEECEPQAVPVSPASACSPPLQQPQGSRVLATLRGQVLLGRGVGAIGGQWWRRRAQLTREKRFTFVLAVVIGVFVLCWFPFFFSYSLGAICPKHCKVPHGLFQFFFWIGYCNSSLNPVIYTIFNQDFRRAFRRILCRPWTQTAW

The target of experiment [11] is Muscarinic acetylcholine receptor M3 (Homo sapiens) (UniProt P20309).
Sequence of Muscarinic acetylcholine receptor M3 (Homo sapiens) (P20309 whole entry, looked up): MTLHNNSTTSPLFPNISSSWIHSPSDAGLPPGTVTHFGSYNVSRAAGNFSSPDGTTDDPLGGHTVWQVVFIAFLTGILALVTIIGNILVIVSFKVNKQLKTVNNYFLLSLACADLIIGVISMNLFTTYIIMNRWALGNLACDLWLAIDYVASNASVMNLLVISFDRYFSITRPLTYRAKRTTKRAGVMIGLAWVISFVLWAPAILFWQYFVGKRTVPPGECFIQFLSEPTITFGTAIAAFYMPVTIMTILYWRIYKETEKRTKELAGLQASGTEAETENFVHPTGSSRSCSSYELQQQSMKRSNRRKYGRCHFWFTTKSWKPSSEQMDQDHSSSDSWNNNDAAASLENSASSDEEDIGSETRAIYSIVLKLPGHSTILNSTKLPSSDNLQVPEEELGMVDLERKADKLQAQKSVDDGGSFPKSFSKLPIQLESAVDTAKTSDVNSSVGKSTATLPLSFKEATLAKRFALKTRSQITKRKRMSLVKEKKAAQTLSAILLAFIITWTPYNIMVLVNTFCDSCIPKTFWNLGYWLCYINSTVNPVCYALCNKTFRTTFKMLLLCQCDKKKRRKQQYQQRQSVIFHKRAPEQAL
The target of experiment [12] is Histamine H4 receptor (Homo sapiens) (UniProt Q9H3N8).
Sequence of Histamine H4 receptor (Homo sapiens) (Q9H3N8 whole entry): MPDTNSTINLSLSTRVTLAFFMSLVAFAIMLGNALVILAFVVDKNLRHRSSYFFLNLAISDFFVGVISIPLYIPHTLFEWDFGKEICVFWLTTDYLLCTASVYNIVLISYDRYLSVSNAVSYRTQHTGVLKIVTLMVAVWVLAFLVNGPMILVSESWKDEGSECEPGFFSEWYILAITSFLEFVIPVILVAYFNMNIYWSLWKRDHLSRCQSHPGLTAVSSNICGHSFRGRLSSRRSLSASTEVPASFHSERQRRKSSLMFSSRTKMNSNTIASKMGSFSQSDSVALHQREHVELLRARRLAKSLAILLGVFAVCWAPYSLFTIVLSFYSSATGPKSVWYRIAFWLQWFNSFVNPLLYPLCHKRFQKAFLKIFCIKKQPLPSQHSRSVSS

Sequence of Sigma intracellular receptor 2 (Homo sapiens) (Q5BJF2 whole entry): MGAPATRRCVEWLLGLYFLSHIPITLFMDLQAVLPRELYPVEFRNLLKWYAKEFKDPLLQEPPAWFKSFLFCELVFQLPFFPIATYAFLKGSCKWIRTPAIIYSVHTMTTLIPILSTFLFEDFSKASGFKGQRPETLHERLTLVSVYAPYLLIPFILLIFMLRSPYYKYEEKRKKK
Sequence of Translocator protein (Homo sapiens) (P30536 whole entry): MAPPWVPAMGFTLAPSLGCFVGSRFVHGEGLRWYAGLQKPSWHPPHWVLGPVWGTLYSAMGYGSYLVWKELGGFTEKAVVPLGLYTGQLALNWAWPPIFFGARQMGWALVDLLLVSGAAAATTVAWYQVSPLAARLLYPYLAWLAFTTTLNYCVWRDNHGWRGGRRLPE

On to `NC[C@@H]1O[C@H](C23CC4CC(CC(C4)C2)C3)Cc2c1ccc(O)c2O`, for which the inhibition in experiment [1] was 83.8%; in experiment [2], 21.6%; in experiment [3] it was 39.6%; in experiment [4], 102%; in experiment [5], 58.5%; in experiment [6] it was -5.61%. Further, the inhibition was 56.9% in experiment [7]; 100% in experiment [8]; 81.7% in experiment [9]; 64.3% in experiment [10]; 12.7% in experiment [11]; -6.56% in experiment [12].
As for `O=S1(=O)c2cccc3cccc(c23)N1CCCN1CCN(c2ccc(F)cc2)CC1`, the inhibition in [1] was 108%; in [2] it was 41.2%; in experiment [3], 32.9%; in experiment [4], 98.7%; in [5], 65.1%; in experiment [6] it was 28.7%. Besides, the inhibition was 98.1% in experiment [7]; 59.8% in [8]; 96.9% in experiment [9]; 104% in [10]; 1.23% in [11]; 5.54% in [12].
`Cc1ccccc1C(=O)Nc1ccc(C(=O)N2CCCC(O)c3cc(Cl)ccc32)c(C)c1` (stereo not given): the inhibition in [1] was 20%; in [2], 9.21%; in experiment [3], -5.18%; in [4], 9.34%; in [5], 20.8%; in experiment [6] it was 35.6%. The inhibition in experiment [7] is 0.66%; in [8], 9.57%; in experiment [9], 91.8%; in experiment [10], 17.5%; in experiment [11], 17.3%; in experiment [12] it was 3.66%.
For the compound `CN1CC(=O)N=C1NC(=O)Nc1cccc(Cl)c1`, the inhibition in [1] is 27.2%; in [2], -2.54%; in experiment [3], -5.43%; in experiment [4], -3.83%; in experiment [5], 9.52%; in [6], -8.11%. Besides, the inhibition in [7] was -6.38%; in experiment [8], 14.5%; in experiment [9] it was 0.02%; in [10], -6.21%; in experiment [11] it was 1.42%; in [12], -9.18%.
`OC1(c2ccc(Cl)cc2)CCN(Cc2c[nH]c3ccccc23)CC1`: the inhibition in [1] is 66.1%; in experiment [2], 90.2%; in experiment [3] it was -7.87%; in [4], 30.4%; in experiment [5], 63.5%; in experiment [6], -2.88%. The inhibition is 37.1% in experiment [7]; 70.3% in [8]; 97.8% in experiment [9]; 83.8% in experiment [10]; -9.56% in [11]; 13.8% in experiment [12].
For `Cc1nc2sccn2c(=O)c1CCN1CCC(=C(c2ccc(F)cc2)c2ccc(F)cc2)CC1`, the inhibition in experiment [1] is 82.1%; in experiment [2], 95.4%; in [3], 4.51%; in experiment [4], 94.9%; in experiment [5], 53.7%; in experiment [6] it was 31.2%. Besides, the inhibition in [7] was 95.9%; in [8] it was 99.5%; in experiment [9] it was 98.7%; in experiment [10] it was 84%; in experiment [11], 6.1%; in experiment [12] it was 59%.
In the case of `COc1cccc([C@H](O)C2CCN(CCc3ccc(F)cc3)CC2)c1OC`, the inhibition in experiment [1] was 43.9%; in experiment [2] it was 4.57%; in [3] it was 9.53%; in experiment [4], 26.7%; in [5], 45.2%; in experiment [6], -6.18%. The inhibition is 57.3% in experiment [7]; 63.9% in [8]; 95.9% in [9]; 71.7% in experiment [10]; -8.67% in experiment [11]; 3.4% in experiment [12].
`CCN(CC)CCCCC1CCN(CC(=O)N2c3ccccc3C(=O)Nc3cccnc32)CC1`: the inhibition in experiment [1] was -8.29%; in experiment [2], 2.83%; in experiment [3], 3.5%; in experiment [4] it was -6.76%; in [5], 15.3%; in [6] it was -2.79%. For the same compound, the inhibition in experiment [7] is -0.95%; in [8] it was 102%; in experiment [9], 82.1%; in experiment [10], -3.71%; in [11], 88.7%; in experiment [12] it was 21.4%.
In the case of `S=C(NCCCc1c[nH]cn1)NCCCN(Cc1ccc(Cl)c(Cl)c1)c1ccc(Br)cn1`, the inhibition in experiment [1] was 40.9%; in experiment [2], 17.1%; in experiment [3], 33.5%; in experiment [4], 101%; in [5], 94.1%; in [6] it was 30.9%. The inhibition in experiment [7] is 89.3%; in experiment [8], 61.5%; in experiment [9] it was 97.7%; in experiment [10], 94.8%; in experiment [11], 48.4%; in experiment [12], 99.3%.
With `COC(=O)C1=C(C)NC(C)=C(C(=O)OCCCN2CCC(c3ccccc3)(c3ccccc3)CC2)[C@H]1c1cccc([N+](=O)[O-])c1`, the inhibition in [1] is 41.5%; in [2], 79.2%; in [3], 43.2%; in [4], 94.8%; in [5], 86.5%; in experiment [6] it was 79.8%. Also, the inhibition is 98.6% in experiment [7]; 80.7% in experiment [8]; 98.7% in experiment [9]; 90% in experiment [10]; 61.2% in [11]; 27.4% in experiment [12].
